Laboratory results published in publication PMC3433420 (PLoS ONE, 2012).
Residues, ends and D or L forms follow the SMILES beside them.

Legend:
PTK6 SH2 domain = target: T1, PTK6 SH2 domain (Homo sapiens, UniProt Q13882); test: FP saturation binding assay; conditions: protein PTK6; FP, high-confidence ErbB interactions; mean of replicate hits
T1 construct: from the PTK6 SH2 domain; 6X His; thioredoxin; made in house; host or cells: E. coli BL21(DE3)pLysS
Experimental: (See Figure 1A) Rhodamine-labeled peptides were dissolved in assay buffer (20 mM HEPES, 100 mM KCl, 0.1% Tween-20, 5 mM DTT, pH 7.8), diluted to a concentration of 20 nM, and plated into black 384-well plates (Corning, Corning, NY) at 5 µL/well using a Perkin Elmer EP3 pipetting workstation (V&P Scientific, Inc., San Diego, CA). SH2, PTB, and thioredoxin control proteins were plated into the first column of 2 mL 96-well plates (Corning) at a concentration of 20 µM and serially diluted 1∶2 into freezing buffer (300 mM NaCl, 50 mM Na2PO4, pH 8, 20% glycerol v/v) eleven times using a Tecan Freedom EVO 100 workstation (Tecan, Männedorf, Switzerland). For the interaction assay, 5 µL of each of the twelve protein concentrations was added to the peptide-containing 384-well plates via the EP3 resulting in a protein dilution range of 0.002–10 µM and a final volume of 10 µL; peptide concentration was fixed at 10 nM. Peptide/protein samples were incubated for 20 minutes at room temperature in the dark and fluorescence polarization (FP) was measured in an Analyst GT multimode reader (Molecular Devices, Sunnyvale, CA) with excitation and emission wavelengths of 530 nm and 555 nm, respectively. Experimental values were output as millipolarization (mP) units and imported into MATLAB (The MathWorks, Inc., Natick, MA) in which equation (1) was used to determine dissociation constants (KDs) for each protein/peptide pairing by least squares nonlinear regression. [drawing 1] (1)
FP was described by the following equation: P=Iparallel-IperpendicularIparallel+Iperpendicular, where “P” denotes polarization, and “I” denotes the fluorescent intensity relative to the plane of incident light. Experimental values were output as millipolarization (mP) units and imported into MATLAB where the following equation was used to determine dissociation constants (KDs) for each protein/peptide pairing by least squares nonlinear regression:
Pobs=Pmax∙ProteinKD+Protein [picture] (1)
Peptides were initially tested for systematic plate effects across protein dilutions and nonspecific binding to thioredoxin by linear regression analysis and any effects were regressed out. The median baseline control polarization value for each plate was then subtracted from each data point to make each binding curve intersect at zero. Plates with excessive variation in baseline control polarizations on both a global and run-specific manner (Dixon’s Q test, p < 0.05) were excluded from further analysis. Outliers in each binding curve were identified and removed using an iterative procedure as follows. The residuals for each fit were used to calculate a global standard deviation of the residuals (GSDR) for each concentration of SH2 domain over all interactions, and individual data points with residuals < or > two GSDR from the global mean residual were flagged as outliers. The outlier with the largest residual from each interaction was removed and nonlinear regression was again performed. This procedure was repeated if additional outliers were identified for an interaction, discarding the interaction if the number of outliers exceeded three. […] In order to further control our false positive rate against hidden confounding variables producing binding artifacts, we sought to determine whether there was a significant relationship between the strength of an interaction and its technical replication rate at our stringent significance and filtering thresholds. We performed logistic regression on the proportion of successful replicates for each interaction query against KD for all interactions (Figure S15A). […] This is related to the observation that the majority of interactions detected by FP are tight (Figure S15B). With this logit model, we assigned a probability to each peptide-protein interaction in our data by using a binomial proportions test to compare the observed versus the expected replication rate at the particular KD of that interaction (Table S4). […]

HSH2D SH2 domain = target: T2, HSH2D SH2 domain (Homo sapiens, UniProt Q96JZ2); test: FP saturation binding assay
T2 sequence (Q96JZ2 34-125 limits assumed): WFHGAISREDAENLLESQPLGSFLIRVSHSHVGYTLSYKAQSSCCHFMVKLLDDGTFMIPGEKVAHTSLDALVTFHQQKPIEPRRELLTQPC

SH2 and PTB domains [1] = target: T3, SH2 and PTB domains (Homo sapiens, UniProt P07947); test: In-house protein microarrays (with or without 5 mM DTT), protein named per line; format: binding; conditions: protein YES1, array fabrication # 39336
T3 construct: thioredoxin; made in house; host or cells: BL21(DE3)pLysS E. coli
T3 sequence (P07947 whole entry, the tested form may be a part): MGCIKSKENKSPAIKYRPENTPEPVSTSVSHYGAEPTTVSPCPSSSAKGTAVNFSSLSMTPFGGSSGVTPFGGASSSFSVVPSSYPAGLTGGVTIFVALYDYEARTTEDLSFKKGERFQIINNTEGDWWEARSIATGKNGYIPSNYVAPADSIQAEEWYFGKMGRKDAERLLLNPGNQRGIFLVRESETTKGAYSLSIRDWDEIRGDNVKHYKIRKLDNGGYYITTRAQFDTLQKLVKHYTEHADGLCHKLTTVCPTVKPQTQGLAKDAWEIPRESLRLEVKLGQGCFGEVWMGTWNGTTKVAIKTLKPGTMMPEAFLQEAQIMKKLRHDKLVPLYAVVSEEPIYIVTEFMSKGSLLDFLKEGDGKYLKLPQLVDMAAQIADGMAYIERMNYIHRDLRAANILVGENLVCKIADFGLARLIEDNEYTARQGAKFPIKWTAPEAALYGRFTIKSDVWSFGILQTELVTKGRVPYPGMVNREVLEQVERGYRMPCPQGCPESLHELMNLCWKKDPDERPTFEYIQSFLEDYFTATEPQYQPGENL
Experimental: (§1) 300 pL of purified recombinant proteins and a thioredoxin tag control were spotted at a concentration of ∼40 µM in duplicate onto aldehyde-coated microscope slides (Erie Scientific Company, Portsmouth, NH) using a Nano-Plotter (NP) 2.1/E noncontact microarrayer (GeSiM, Munich, Germany). 16 identical microarrays per slide were printed in a 2×8 (column by row) format with distances of 9 mm between individual arrays; each array consisted of a 14×14 configuration of spots 400 µm apart. Following printing at a constant humidity level of 50%, slides were desiccated overnight and stored at −80°C. For peptide probing, array slides were transferred to 96-well microplates (TeleChem International, Inc., Sunnyvale, CA) and sandwiched with silicone gaskets. Prior to peptide addition, aldehyde sites were quenched with buffer B (20 mM HEPES, 100 mM KCl, 0.1% Tween-20, 5 mM DTT, pH 7.8) containing 1% bovine serum albumin (BSA) (w/v) for one hour at room temperature; moderate agitation was applied in a plate shaker (IKA, Germany) to displace glycerol from the surface area of protein sample spots. […] The arrays were subsequently washed once with 300 µL of buffer B and once with 300 µL of ddH2O. Residual water was removed by centrifugation; slides were stored under desiccation in the dark until analysis.
(§2) Microarray slides were scanned at a resolution of 10 µm using a GenePix 4000B microarray scanner and analyzed using GenePix Pro v6.0 software (Molecular Devices, Sunnyvale, CA). To independently visualize protein spots irrespective of peptide binding, samples were printed simultaneously with 400 nM of Cyanine-5 (Cy5) labeled bovine serum albumin (BSA). […] Following spot layout identification via Cy5 labeled BSA, the mean fluorescence intensity of rhodamine for duplicate protein spots was quantified and normalized by subtracting the corresponding mean fluorescence intensity of thioredoxin. Normalized fluorescence values were then imported into MATLAB and KDs determined as previously described.

SH2 and PTB domains [2] = target: T4, SH2 and PTB domains (Homo sapiens, UniProt P16885); test: as above; format: binding; conditions: protein PLCG2-NC, array fabrication # 39336
T4 construct: thioredoxin; made in house; host or cells: BL21(DE3)pLysS E. coli
T4 sequence (P16885 1-1265): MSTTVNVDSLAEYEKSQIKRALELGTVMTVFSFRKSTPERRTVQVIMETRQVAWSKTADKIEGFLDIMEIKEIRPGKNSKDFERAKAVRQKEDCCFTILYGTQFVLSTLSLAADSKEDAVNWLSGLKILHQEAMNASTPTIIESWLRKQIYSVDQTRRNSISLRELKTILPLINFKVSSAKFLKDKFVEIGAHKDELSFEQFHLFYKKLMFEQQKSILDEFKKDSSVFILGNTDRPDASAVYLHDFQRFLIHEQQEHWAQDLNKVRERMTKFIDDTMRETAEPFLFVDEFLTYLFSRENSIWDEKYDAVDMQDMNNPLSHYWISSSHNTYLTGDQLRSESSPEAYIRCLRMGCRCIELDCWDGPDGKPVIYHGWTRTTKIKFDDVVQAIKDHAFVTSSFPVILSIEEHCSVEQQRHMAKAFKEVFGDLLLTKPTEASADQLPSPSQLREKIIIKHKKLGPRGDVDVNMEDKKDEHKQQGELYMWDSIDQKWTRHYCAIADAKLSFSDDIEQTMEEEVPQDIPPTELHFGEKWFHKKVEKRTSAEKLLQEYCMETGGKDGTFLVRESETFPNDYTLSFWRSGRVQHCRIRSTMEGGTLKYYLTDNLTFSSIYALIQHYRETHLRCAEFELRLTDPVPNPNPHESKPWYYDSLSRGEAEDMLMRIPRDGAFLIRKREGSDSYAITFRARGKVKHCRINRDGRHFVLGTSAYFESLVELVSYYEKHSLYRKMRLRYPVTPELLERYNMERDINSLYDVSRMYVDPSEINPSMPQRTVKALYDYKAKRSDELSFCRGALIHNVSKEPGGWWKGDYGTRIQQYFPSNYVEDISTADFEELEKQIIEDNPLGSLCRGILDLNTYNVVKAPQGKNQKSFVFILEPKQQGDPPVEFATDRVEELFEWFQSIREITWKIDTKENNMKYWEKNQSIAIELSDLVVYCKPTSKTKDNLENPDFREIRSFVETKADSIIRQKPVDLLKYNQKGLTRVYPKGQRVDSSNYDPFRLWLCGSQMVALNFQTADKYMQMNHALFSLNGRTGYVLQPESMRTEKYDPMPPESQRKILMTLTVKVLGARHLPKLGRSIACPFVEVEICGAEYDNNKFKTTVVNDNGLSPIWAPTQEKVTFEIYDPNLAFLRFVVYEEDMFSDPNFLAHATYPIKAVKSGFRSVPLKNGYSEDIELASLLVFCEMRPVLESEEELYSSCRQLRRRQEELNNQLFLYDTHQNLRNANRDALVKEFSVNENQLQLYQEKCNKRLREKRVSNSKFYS
Experimental: as §1, §2

SH2 and PTB domains [3] = target: T5, SH2 and PTB domains (Homo sapiens, UniProt P42684); test: as above; format: binding; conditions: protein ABL2, array fabrication # 39336
T5 construct: thioredoxin; made in house; host or cells: BL21(DE3)pLysS E. coli
T5 sequence (P42684 whole entry, the tested form may be a part): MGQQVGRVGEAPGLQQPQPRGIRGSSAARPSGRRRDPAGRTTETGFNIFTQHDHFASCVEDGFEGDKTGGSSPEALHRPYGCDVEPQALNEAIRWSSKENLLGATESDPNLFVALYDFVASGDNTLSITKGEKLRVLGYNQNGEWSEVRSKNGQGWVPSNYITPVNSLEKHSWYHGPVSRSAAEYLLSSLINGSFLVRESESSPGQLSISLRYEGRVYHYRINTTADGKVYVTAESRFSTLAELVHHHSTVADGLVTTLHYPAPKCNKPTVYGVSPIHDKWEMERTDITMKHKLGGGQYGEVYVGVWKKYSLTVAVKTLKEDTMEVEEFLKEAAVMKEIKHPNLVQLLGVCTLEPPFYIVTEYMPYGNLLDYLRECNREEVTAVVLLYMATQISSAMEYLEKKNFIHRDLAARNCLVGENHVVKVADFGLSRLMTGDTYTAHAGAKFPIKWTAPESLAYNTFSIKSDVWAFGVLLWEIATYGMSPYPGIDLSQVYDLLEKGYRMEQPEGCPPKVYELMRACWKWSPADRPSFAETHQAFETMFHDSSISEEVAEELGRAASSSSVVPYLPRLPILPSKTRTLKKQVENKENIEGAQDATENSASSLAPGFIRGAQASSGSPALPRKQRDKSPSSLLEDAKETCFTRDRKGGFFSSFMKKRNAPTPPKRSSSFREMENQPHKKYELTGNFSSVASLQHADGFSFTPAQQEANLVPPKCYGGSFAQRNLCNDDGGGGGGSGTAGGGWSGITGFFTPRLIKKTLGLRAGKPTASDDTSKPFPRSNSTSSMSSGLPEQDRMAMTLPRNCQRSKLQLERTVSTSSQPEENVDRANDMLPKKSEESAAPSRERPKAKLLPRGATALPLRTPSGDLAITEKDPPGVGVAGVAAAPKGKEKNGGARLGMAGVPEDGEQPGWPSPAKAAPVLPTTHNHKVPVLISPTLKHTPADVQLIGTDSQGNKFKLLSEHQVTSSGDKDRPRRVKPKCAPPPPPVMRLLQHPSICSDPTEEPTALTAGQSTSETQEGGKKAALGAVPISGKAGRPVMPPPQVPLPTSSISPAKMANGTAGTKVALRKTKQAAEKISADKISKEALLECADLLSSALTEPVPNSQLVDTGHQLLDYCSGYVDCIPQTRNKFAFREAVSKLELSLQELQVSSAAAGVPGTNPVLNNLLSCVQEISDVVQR
Experimental: as §1, §2

SH2 and PTB domains [4] = target: T6, SH2 and PTB domains (Homo sapiens, UniProt P43405); test: as above; format: binding; conditions: protein SYK-NC, array fabrication # 39336
T6 construct: thioredoxin; made in house; host or cells: BL21(DE3)pLysS E. coli
Experimental: as §1, §2

SH2 and PTB domains [5] = target: T7, SH2 and PTB domains (Homo sapiens, UniProt P51451); test: as above; format: binding; conditions: protein BLK, array fabrication # 39336
T7 construct: thioredoxin; made in house; host or cells: BL21(DE3)pLysS E. coli
T7 sequence (P51451 whole entry, the tested form may be a part): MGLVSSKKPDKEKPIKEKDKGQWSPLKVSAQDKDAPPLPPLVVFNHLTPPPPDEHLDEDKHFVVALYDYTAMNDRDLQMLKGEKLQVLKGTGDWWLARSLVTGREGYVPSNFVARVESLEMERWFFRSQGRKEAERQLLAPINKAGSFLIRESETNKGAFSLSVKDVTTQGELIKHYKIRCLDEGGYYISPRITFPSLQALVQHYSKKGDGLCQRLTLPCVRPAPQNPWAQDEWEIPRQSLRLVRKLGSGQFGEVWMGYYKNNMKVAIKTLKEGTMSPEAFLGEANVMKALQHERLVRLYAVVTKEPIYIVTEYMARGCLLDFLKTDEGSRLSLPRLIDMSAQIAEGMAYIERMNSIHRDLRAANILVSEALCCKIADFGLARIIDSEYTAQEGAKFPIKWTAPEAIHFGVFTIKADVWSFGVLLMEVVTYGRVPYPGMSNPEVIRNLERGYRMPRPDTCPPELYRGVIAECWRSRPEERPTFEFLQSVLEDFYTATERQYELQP
Experimental: as §1, §2

SH2 and PTB domains [6] = target: T8, SH2 and PTB domains (Homo sapiens, UniProt P78314); test: as above; format: binding; conditions: protein SH3BP2, array fabrication # 39336
T8 construct: thioredoxin; made in house; host or cells: BL21(DE3)pLysS E. coli
T8 sequence (P78314 1-561): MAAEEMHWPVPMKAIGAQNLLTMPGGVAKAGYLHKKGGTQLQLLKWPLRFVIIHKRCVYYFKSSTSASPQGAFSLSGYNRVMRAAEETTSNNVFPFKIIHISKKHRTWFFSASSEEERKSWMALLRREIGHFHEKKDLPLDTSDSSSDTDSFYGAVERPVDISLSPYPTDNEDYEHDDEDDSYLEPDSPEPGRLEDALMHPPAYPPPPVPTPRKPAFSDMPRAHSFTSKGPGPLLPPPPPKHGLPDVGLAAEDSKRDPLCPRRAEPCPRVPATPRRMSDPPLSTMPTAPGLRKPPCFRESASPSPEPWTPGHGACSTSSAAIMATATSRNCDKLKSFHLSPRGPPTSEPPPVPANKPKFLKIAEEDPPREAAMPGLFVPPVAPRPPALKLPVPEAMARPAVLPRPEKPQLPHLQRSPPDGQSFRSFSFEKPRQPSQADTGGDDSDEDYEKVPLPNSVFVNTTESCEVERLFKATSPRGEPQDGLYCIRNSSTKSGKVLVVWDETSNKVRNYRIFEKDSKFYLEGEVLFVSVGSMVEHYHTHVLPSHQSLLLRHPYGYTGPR
Experimental: as §1, §2

T1 sequence (Q13882 78-170 limits assumed): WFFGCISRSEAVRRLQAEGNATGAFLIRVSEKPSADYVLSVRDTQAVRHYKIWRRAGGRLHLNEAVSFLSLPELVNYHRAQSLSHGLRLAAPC

Row | Structure (SMILES) | Kd (PTK6 SH2 domain) | Kd (HSH2D SH2 domain) | Kd (SH2 and PTB domains [1]; PM assay replicate # 39341) | Kd (SH2 and PTB domains [1]; PM assay replicate # 39342) | Kd (SH2 and PTB domains [2]; PM assay replicate # 39341) | Kd (SH2 and PTB domains [2]; PM assay replicate # 39342) | Kd (SH2 and PTB domains [3]; PM assay replicate # 39341) | Kd (SH2 and PTB domains [3]; PM assay replicate # 39342) | Kd (SH2 and PTB domains [4]; PM assay replicate # 39341) | Kd (SH2 and PTB domains [4]; PM assay replicate # 39342) | Kd (SH2 and PTB domains [5]; PM assay replicate # 39341) | Kd (SH2 and PTB domains [5]; PM assay replicate # 39342) | Kd (SH2 and PTB domains [6]; PM assay replicate # 39341) | Kd (SH2 and PTB domains [6]; PM assay replicate # 39342)
1 | C[C@H](NC(=O)[C@H](CC(N)=O)NC(=O)[C@H](Cc1c[nH]cn1)NC(=O)[C@H](Cc1ccc(OP(=O)(O)O)cc1)NC(=O)[C@H](CCC(=O)O)NC(=O)[C@@H]1CCCN1C(=O)[C@H](CC(N)=O)NC(=O)[C@@H](N)CC(=O)O)C(=O)N[C@@H](CO)C(=O)N[C@@H](CC(N)=O)C(=O)NCC(=O)N1CCC[C@H]1C(=O)N[C@@H](CC(=O)O)C(=O)O [ErbB4 1188 13-mer] (HELM PEPTIDE1{D.N.P.E.[O=C([C@H](Cc1ccc(OP(=O)(O)O)cc1)N[*:1])[*:2]].H.N.A.S.N.G.P.D}$$$$V2.0) | 9420 nM | 3050 nM |  |  |  |  |  |  |  |  |  |  |  | 
2 | CC(C)C[C@H](NC(=O)[C@@H](NC(=O)[C@@H](NC(=O)CNC(=O)[C@@H]1CCCN1)[C@@H](C)O)C(C)C)C(=O)N1CCC[C@H]1C(=O)N1CCC[C@H]1C(=O)N1CCC[C@H]1C(=O)N1CCC[C@H]1C(=O)N[C@@H](Cc1ccc(OP(=O)(O)O)cc1)C(=O)N[C@@H](CCCNC(=N)N)C(=O)N[C@@H](Cc1c[nH]cn1)C(=O)N[C@@H](CCCNC(=N)N)C(=O)N[C@@H](CC(N)=O)C(=O)N[C@H](C(=O)N[C@H](C(=O)N[C@H](C(=O)N[C@@H](CC(=O)O)C(=O)O)C(C)C)C(C)C)[C@@H](C)O [ErbB4 pY1301 (18-mer)] (HELM PEPTIDE1{P.G.T.V.L.P.P.P.P.[O=C([C@H](Cc1ccc(OP(=O)(O)O)cc1)N[*:1])[*:2]].R.H.R.N.T.V.V.D}$$$$V2.0) |  |  | 1370 nM | 4860 nM | 810 nM | 8370 nM | 1030 nM | 0.68 nM | 800 nM | 1170 nM | 1180 nM | 1600 nM | 1180 nM | 1610 nM
